Laboratory results taken from the supplement of paper PMC3068080.

How the values were obtained:
TGFBR2 mRNA = test: remaining TGFBR2 mRNA relative to control siRNA (off-target knock-down) (fraction of control); quantification method: branched DNA; higher = less knock-down
Experimental: (§1)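 Screen-hit siRNA duplexes (19-mer plus 3' dTdT overhang) were transiently transfected into HaCaT cells in 12-well plates. After 48 h, TGFBR1 and TGFBR2 mRNA were quantified by branched DNA assay (QuantiGene, normalised to HPRT1) or by SYBR qPCR (normalised to HPRT1/SMAD4). Values are the remaining mRNA relative to control-siRNA-transfected cells; 1-2 biological replicates.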

TGFBR1 mRNA = test: remaining TGFBR1 mRNA relative to control siRNA (off-target knock-down) (fraction of control); quantification method: branched DNA; higher = less knock-down
Experimental: as §1

Sequence | remaining TGFBR2 mRNA (TGFBR2 mRNA) | remaining TGFBR1 mRNA (TGFBR1 mRNA)
AUGGACAUUUACGGUAGUGTT | 0.46 | 0.44
AACAUAGCCUCAUACAAGGTT | 0.25 | 0.7
UGUGCUUGGUCACGGACACTT | 0.27 | 1.86
AGAUCCAGGAUUACGCCAGTT | 0.72 | 0.88
UGGUGAAGAGGCACUUAACTT | 1.06 | 0.69
UCUACCCAGAACUCCACGATT | 1.01 | 0.14
UUCCUUGGUACGGCCGCUCTT | 0.13 | 0.87
UUCGUCGAUGGCUUCGUCUTT | 0.65 | 0.67
UUUGGACUGGUUGGCACAGTT | 0.69 | 1.11
UAGCAUUCAUUUUCCGUGGTT | 0.27 | 0.72
GAGUGACCUGCUCCUCUAATT | 0.61 | 1.01
UUCAAGGUCAGUCUCUGGGTT | 0.51 | 1.07
UCAAGGUGGACAAAGCUCUTT | 0.29 | 0.74
CAGUCUCAUCGUCCUCAUCTT | 0.69 | 1.07
UUUGUUGUCCAGUGGUCCGTT | 0.43 | 1.13
AUAUCCCGGGAGUUGUCGUTT | 0.37 | 1.1
AGCUUAUCCAACAGACGUCTT | 0.29 | 1.07
AGCUUGUGCCAAGUGCCAUTT | 0.33 | 0.92
UUUCCUGGCCUCCUGGAACTT | 0.29 | 0.94
AUCUAAACUCCUCUGGAGCTT | 0.38 | 0.76
GUUCAGCAGCAGCAGACCATT | 0.79 | 1.16
UUUGGCUUCUUCUAGUGACTT | 0.51 | 0.91
UCCUUGGUCCAUUAGGAGATT | 0.22 | 0.61
AUGGUGUUUGCAAGCUCCUTT | 0.36 | 1
UCAACAAGCUAAGUCUGCCTT | 0.72 | 1.1
UGGAGCUGCACAUAUUCCUTT | 0.27 | 1.2

Sequence | remaining TGFBR2 mRNA (TGFBR2 mRNA) | remaining TGFBR1 mRNA (TGFBR1 mRNA)
AGCACUGCGAGUACUGUGUTT | 1.08 | 0.33
UUAUAAGCCAAAGUGCGUCTT | 1.66 | 0.6
AUAUUCCGUAAAACGAACATT | 0.38 | 0.77
UCCAGCUGUUUCGUUCCUCTT | 0.36 | 0.85
UUAUCCUGAUCACGUCUAGTT | 0.14 | 0.65
AUGGCUAUUCCUGACCACGTT | 0.26 | 0.93
AUGCACUGAAGAAUUUCUUTT | 0.75 | 0.43
GAGCAGCUCUCGUAGCCAUTT | 0.33 | 1.01
AUAAGCAGUAAGUAGCUGGTT | 0.99 | 0.5
UUAUCCCAUAUGAGCUCAGTT | 0.5 | 1.33
GUUCUUGGGCUAUGUCCAATT | 0.32 | 0.89
UAUAGUCCACAGACACGCUTT | 0.97 | 0.92
UGGACAUGGAGUGGCCUGATT | 0.55 | 1.09
ACUUUGGUUUCGGUGCAGCTT | 0.23 | 0.63
ACUUUGGACAUGACCGGCUTT | 0.51 | 1.2
AAAUGCUCCACCUCUCGGGTT | 0.28 | 0.37
AAUGGGAGACAAGCCAAUUTT | 0.25 | 0.77
GAGGUUGUUGUUGAGCUCGTT | 0.73 | 0.96
AUUGAAGCCACCAUUCUCCTT | 0.94 | 0.23
UUCAAUAGUUGUCAGAGGCTT | 1.62 | 1.35
UUCUUUGGAGAGUCCGGUCTT | 0.3 | 0.88
AAGUGCAUUCCGUGCAAUCTT | 0.59 | 0.92
AUGUCUCAAAGUCAAAAAATT | 0.58 | 0.92
UUGCAAGCCCAGAUCAGACTT | 0.74 | 0.92
AAAAGGCCUUCAAGCUGUUTT | 0.41 | 0.56
CAAACAGCGGUUGGAAUAATT | 0.33 | 0.81

Sequence | remaining TGFBR2 mRNA (TGFBR2 mRNA) | remaining TGFBR1 mRNA (TGFBR1 mRNA)
AUAUAUACUGCUAUGGUCATT | 0.39 | 0.39
CACUUCCCGGAUACUCAGATT | 0.33 | 0.96
UUUCCUGGUUGGUGAGCAGTT | 0.36 | 1.29
UGAAUAACCCUCUGGACAGTT | 0.83 | 0.45
AUUUCGCACACGUCCGUGUTT | 0.61 | 0.86
UCCUUGUCCUUGGACAGUGTT | 0.24 | 1.14
AUCCUGAGAUGUCAGCAGCTT | 0.4 | 1.42
UUCCCUGCUACUGUUGCUUTT | 0.72 | 0.84
CUUGACUUCUGGGGUCCACTT | 0.94 | 0.92
UGAUGUUGAUCUGGGGCACTT | 0.54 | 0.55
UCCUGGAAGUUUGACGUCCTT | 1.41 | 0.88
AUUGUUCCGGAAAUAGGUCTT | 0.72 | 1.15
UGCGUUUACGGUUCACACGTT | 0.6 | 0.69
UGAUAGCACCAACACAAAGTT | 0.74 | 0.44
UGAAGACAGUCCUAUGGACTT | 0.97 | 0.42
UUUCAGCAAUACAAGCCCGTT | 0.68 | 0.39
AGCGUCCUGAAGACUGGAUTT | 1.03 | 0.27
UGCUUGAGUAGUGCUAGUUTT | 0.58 | 0.71
AGGCAACAGGGAUGAGAUGTT | 0.2 | 0.93
AUGUUCCGCCUGCUUUUGCTT | 0.38 | 1.19
AAUCCUCUGGUGACUGCUGTT | 0.54 | 1.13
UCAUAGCUCUGGCAUCGUCTT | 0.41 | 1.11
GGAAGUGUCAUGGAAGGUGTT | 0.29 | 0.7
ACUGGAUCAGUCGCAGAAUTT | 0.38 | 1.15
UGUAGUGAAUUCCAAAGAGTT | 0.41 | 0.47
